Results as given in patent US20110218343A1, “SMALL MOLECULE INHIBITORS OF ROTAMASE ENZYME ACTIVITY” (GLIAMED, INC., priority 1995, published 2011).

Key:
[1] = tested on: chick dorsal root ganglia (DRG) explants; experiment: Neurite outgrowth in chick dorsal root ganglion cultures; type: cell-based; conditions: whole ganglion explants from ten day chick embryos; neurites counted 48 hours after drug treatment
Experimental: Dorsal root ganglia were dissected from chick embryos of ten day gestation. Whole ganglion explants were cultured on thin layer Matrigel-coated 12 well plates with Liebovitz L15 plus high glucose media supplemented with 2 mM glutamine and 10% fetal calf serum, and also containing 10 μM cytosine .β-D arabinofuranoside (Ara C) at 37° C. in an environment containing 5% CO2. Twenty-four hours later, the DRGs were treated with various concentrations of nerve growth factor, immunophilin ligands or combinations of NFG plus drugs. Forty-eight hours after drug treatment, the ganglia were visualized under phase contrast or Hoffman Modulation contrast with a Zeiss Axiovert inverted microscope. Photomicrographs of the explants were made, and neurite outgrowth was quantitated. Neurites longer than the DRG diameter were counted as positive, with total number of neurites quantitated per each experimental condition. Three to four DRGs are cultured per well, and each treatment was performed in duplicate.

FKBP = FKBP (Homo sapiens, UniProt P62942); experiment: FKBP rotamase (peptidyl-prolyl isomerase) inhibition, chymotrypsin-coupled assay; type: biochemical; conditions: apparent Ki; cis-trans isomerization of model substrate N-succinyl-Ala-Ala-Pro-Phe-p-nitroanilide, absorbance at 390 nm
FKBP, sequence (P62942 whole entry): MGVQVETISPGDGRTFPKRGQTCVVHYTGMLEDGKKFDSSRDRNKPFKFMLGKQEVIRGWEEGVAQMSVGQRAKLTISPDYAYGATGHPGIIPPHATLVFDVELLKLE

CCC(C)(C)C(=O)C(=O)N1CCC[C@H]1C(=O)OCCCc1ccccc1 [Example 4, 3-phenyl-1-propyl(2S)-1-(3,3-dimethyl-1,2-dioxopentyl)-2-pyrrolidinecarboxylate]
ED50 (Neurite Outgrowth in Chick DRG) [1]: 53 nM

CCC(C)(C)C(=O)C(=O)N1CCC[C@H]1C(=O)OCCCc1cc(OC)c(OC)c(OC)c1 [Example 6, 3-(3,4,5-Trimethoxyphenyl)-1-propyl(2S)-1-(3,3-dimethyl-1,2-dioxopentyl)-2-pyrrolidinecarboxylate]
ED50 (Neurite Outgrowth in Chick DRG) [1]: 149 nM

CCC(C)(C)C(=O)C(=O)N1CCC[C@H]1C(=O)OC/C=C/c1cc(OC)c(OC)c(OC)c1 [Example 7, 3-(3,4,5-Trimethoxyphenyl)-1-prop-2-(E)-enyl(2S)-1-(3,3-dimethyl-1,2-dioxopentyl)-2-pyrrolidinecarboxylate]
ED50 (Neurite Outgrowth in Chick DRG) [1]: 190 nM

CCC(C)(C)C(=O)C(=O)N1CCC[C@H]1C(=O)OC/C=C/c1ccc(Cl)c(Cl)c1 [Example 8, 3-(4,5-Dichlorophenyl)-1-prop-2-(E)-enyl(2S) -1-(3,3-dimethyl-1,2-dioxopentyl)-2-pyrrolidinecarboxylate]
ED50 (Neurite Outgrowth in Chick DRG) [1]: 850 nM

CCC(C)(C)C(=O)C(=O)N1CCC[C@H]1C(=O)OC/C=C/c1ccc2c(c1)OCO2 [Example 9, 3-(4,5-Methylenedioxyphenyl)-1-prop-2-(E)-enyl(2S)-1-(3,3-dimethyl-1,2-dioxopentyl)-2-pyrrolidinecarboxylate]
ED50 (Neurite Outgrowth in Chick DRG) [1]: 75 nM

CCOC(=O)[C@H](Cc1ccccc1)NC(=O)[C@@H]1CCCN1C(=O)C(=O)C(C)(C)CC [Example 24, 1-[1-(3,3-dimethyl-1,2-dioxopentyl)-L-proline]-L-phenylalanine ethyl ester]
Ki (FKBP): 9000 nM
